In patent publication US20240368133A1, “Compounds for the Treatment of Pain, in Particular, Neuropathic Pain, and/or Other Diseases or Disorders that are Associated with AT2R and/or AT2R Mediated Signaling” (Confo Therapeutics N.V., priority 2021, published 2024):
pIC50: −log10 of the molar value. Structures can show the parent of a compound that is named as a salt.

Molecular target: human AT2R fused to Cb23 (Homo sapiens, UniProt P50052)
Test: Radioligand binding assay, displacement of 125I-[Sar1, Ile8]-Angiotensin II, hAT2R Cb23
Conditions: not given
Experimental: (§1) All synthesized ligands were evaluated in a radioligand assay by displacing ^125I-[Sar1, Ile8]-Angiotensin II (Perkin Elmer, NEX248050UC) from human AT2R fused to Cb23 or human/rodent/cynomolgus/minipig/dog WT AT2R in HEK-293 cells membrane preparations, using C21 (Vicore Pharma) and Angiotensin II (endogenous ligand) as reference. The affinity was determined using an eight-point dose-response curve, each point performed in duplicates. The compounds were also evaluated in a counterscreen binding assay for displacement of ^125I-[Sar1, Ile8]-Angiotensin II binding to human AT1R in HEK-293 cell membranes. For AT1R, the percent displacement was determined at 1 μM and […] (in duplicates) or using an eight-point dose-response curve, each point performed in duplicates with Candesartan and Losartan used as reference.
(§2) For the AT2R/AT1R binding assays, cell membranes, expressing AT2R_Cb23, AT2R or AT1R, were incubated with 0.05 nM ^125I-[Sarl, Ile8]-Ang II. The ligand competition assay was performed in a total volume of 100 μL assay buffer (50 mM Tris, 5 mM MgCl2, 1 mM EDTA, 0.1% BSA, pH 7.4), at concentrations ranging from […] to 10 μM. For each experiment, each ligand concentration was tested in duplicate. Non-specific binding (NSB) was determined by the inclusion of 10 μM unlabeled [Sarl]-Ang II (Sigma Aldrich). The reaction was initiated by the addition of radioligand, after which the plates were incubated at 25° C. for one hour. The reaction was terminated by rapid filtration using a vacuum harvester, applying six washes with 100 μL of ice-cold wash buffer (50 mM Tris.HCl, pH 7.4). The filter plates GF/C (Perkin Elmer) were pre-soaked in 0.5% PEI. The residual amount of radioactivity was determined via liquid scintillation counting. IC50 values, representing the concentration at which each ligand displaced 50% of ^125I-[Sarl, Ile8]-Ang II, were calculated using GraphPad Prism 7.02 by applying a Non-linear regression equation (variable slope, four parameters) on the data. The obtained values serve as affinity estimates for each ligand and their ability to compete against the radioligand for binding with AT2R or AT1R, respectively.

human AT2R fused to Cb23, sequence (P50052 whole entry, looked up, the tested form may be a part): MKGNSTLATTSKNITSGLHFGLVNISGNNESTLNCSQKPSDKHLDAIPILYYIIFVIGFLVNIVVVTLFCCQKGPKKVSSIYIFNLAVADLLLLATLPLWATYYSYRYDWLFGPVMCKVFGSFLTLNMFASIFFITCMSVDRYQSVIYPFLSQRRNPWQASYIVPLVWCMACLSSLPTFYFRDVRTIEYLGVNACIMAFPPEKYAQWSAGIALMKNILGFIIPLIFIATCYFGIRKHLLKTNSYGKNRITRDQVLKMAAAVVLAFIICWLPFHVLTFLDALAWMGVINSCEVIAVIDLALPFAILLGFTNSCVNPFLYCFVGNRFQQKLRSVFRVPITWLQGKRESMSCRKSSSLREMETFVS

| SMILES | pIC50 |
| --- | --- |
| c1ccc2sc(CN3CCN(c4cc(NC5CC5)ccc4-c4nn[nH]n4)CC3)nc2c1 [Compound A-61, 3-[4-(1,3-benzothi-azol-2-ylmethyl)-piperazin-1-yl]-N-cyclopropyl-4-(2H-tetrazol-5-yl)aniline hydrochloride] | 4.83 |

Same assay, conditions: displacement of 125I-[Sar1, Ile8]-Angiotensin II, human AT2R fused to Cb23, HEK-293 cell membrane preparations; read-out: Binding affinity on hAT2R_Cb23 IC50

| SMILES | pIC50 |
| --- | --- |
| COc1cc(F)c(-c2nn[nH]n2)c(N2CCN(Cc3cccnn3)CC2)c1 [Compound A-155, 3-[[4-[3-fluoro-5-methoxy-2-(2H-tetrazol-5-yl)phen-yl]piperazin-1-yl]-methyl]pyridazine] | 4.14 |
| CCc1cc(-c2nn[nH]n2)c(N2CCN(Cc3cccnn3)CC2)cc1OC(C)C [Compound A-158, 3-[[4-[4-ethyl-5-isopropoxy-2-(2H-tetrazol-5-yl)phen-yl]piperazin-1-yl]-methyl]pyridazine] | 4.36 |
| Cc1nnc(CN2CCN(c3cc(CC(C)C)ccc3-c3nn[nH]n3)CC2)o1 [Compound A-92] | 4.81 |
| CC(C)Cc1ccc(-c2nn[nH]n2)c(N2CCN(Cc3ncon3)CC2)c1 [Compound A-108, 3-[[4-[5-isobutyl-2-(2H-tetrazol-5-yl)-phenyl]piperazin-1-yl]methyl]-1,2,4-oxadiazole] | 4.38 |
| Cc1nc(=O)cc(CN2CCN(c3cc(CC(C)C)ccc3-c3nn[nH]n3)CC2)[nH]1 [Compound A-95, 6-[[4-[5-isobutyl-2-(2H-tetrazol-5-yl)phenyl]piperazin-1-yl]methyl]-2-methyl-1H-pyrimidin-4-one] | 4.36 |
| CC(C)Cc1ccc(-c2nn[nH]n2)c(N2CCN(Cc3cn(C)cn3)CC2)c1 [Compound A-109, 1-[5-isobutyl-2-(2H-tetrazol-5-yl)phen-yl]-4-[(1-methyl-imidazol-4-yl)meth-yl]piperazine] | 4.39 |
| CC(C)Oc1cc(F)c(-c2nn[nH]n2)c(N2CCN(Cc3cccnn3)CC2)c1 [Compound A-156, 3-[[4-[3-fluoro-5-isopropoxy-2-(2H-tetrazol-5-yl)phen-yl]piperazin-1-yl]-methyl]pyridazine] | 4.94 |
| Cc1ncc(CN2CCN(c3cc(CC(C)C)ccc3-c3nn[nH]n3)CC2)n1C [Compound A-114, 1-[(2,3-dimethyl-imidazol-4-yl)meth-yl]-4-[5-isobutyl-2-(2H-tetrazol-5-yl)-phenyl]piperazine] | 4.73 |
| CC(C)Cc1ccc(-c2nn[nH]n2)c(N2CCN(Cc3cc(=O)n4c(ccn4C)n3)CC2)c1 [Compound A-74, 5-[[4-[5-isobutyl-2-(2H-tetrazol-5-yl)-phenyl]piperazin-1-yl]methyl]-1-methyl-pyrazolo-[1,5-a]pyrimidin-7-one] | 4.93 |
| CC(C)Cc1ccc(-c2nn[nH]n2)c(N2CCN(Cc3cccc(C#N)n3)CC2)c1 [Compound A-107, 6-[[4-[5-isobutyl-2-(2H-tetrazol-5-yl)-phenyl]piperazin-1-yl]methyl]pyr-idine-2-carbonitrile] | 4.26 |
| Cc1noc(CN2CCN(c3cc(CC(C)C)ccc3-c3nn[nH]n3)CC2)n1 [Compound A-96, 5-[[4-[5-isobutyl-2-(2H-tetrazol-5-yl)-phenyl]piperazin-1-yl]methyl]-3-methyl-1,2,4-oxa-diazole] | 4.88 |

Second part, the molecule after the results:

| pIC50 | SMILES |
| --- | --- |
| 4.67 | COCCNc1ccc(-c2nn[nH]n2)c(N2CCN(Cc3nc4ccccc4s3)CC2)c1 [Compound A-63, 3-[4-(1,3-benzothi-azol-2-ylmethyl)-piperazin-1-yl]-N-(2-methoxyethyl)-4-(2H-tetrazol-5-yl)aniline] |
| 4.47 | COc1cc(F)c(-c2nn[nH]n2)c(N2CCN(Cc3nc4ccccc4c(=O)[nH]3)CC2)c1 [Compound A-150, 2-[[4-[3-fluoro-5-methoxy-2-(2H-tetrazol-5-yl)phen-yl]piperazin-1-yl]-methyl]-3H-quin-azolin-4-one] |
| 4.65 | Cc1cc(-c2nn[nH]n2)c(N2CCN(Cc3nc4ccccc4s3)CC2)cc1C1CC1 [Compound A-126, 2-[[4-[5-cycloprop-yl-4-methyl-2-(2H-tetrazol-5-yl)phen-yl]piperazin-1-yl]-methyl]-1,3-benzo-thiazole] |
| 4.28 | COc1cc(N2CCN(Cc3nc4ccccc4s3)CC2)c(-c2nn[nH]n2)cc1F [Compound A-117, 2-[[4-[4-fluoro-5-methoxy-2-(2H-tetrazol-5-yl)phen-yl]piperazin-1-yl]-methyl]-1,3-benzo-thiazole] |
| 4.10 | O=c1c2ccccc2nc(-c2ccccc2)n1CC1CCN(c2ccccc2-c2nnn[nH]2)CC1 [Compound A-249, 2-phenyl-3-[[1-[2-(2H-tetrazol-5-yl)phenyl]-4-piperidyl]methyl]quinazolin-4-one] |
| 4.56 | CCc1nc2ccc([N+](=O)[O-])cc2c(=O)n1CC1CCN(c2ccccc2-c2nn[nH]n2)CC1 [Compound A-242, 2-ethyl-6-nitro-3-[[1-[2-(2H-tetrazol-5-yl)phenyl]-4-piperidyl]methyl]quinazolin-4-one] |
| 3.94 | CC(C)=Cc1ccc(-c2nn[nH]n2)c(N2CCN(Cc3nc4ccccc4c(=O)[nH]3)CC2)c1 [Compound A-30, 2-[[4-[5-(2-methyl-prop-1-enyl)-2-(2H-tetrazol-5-yl)-phenyl]piperazin-1-yl]methyl]-3H-quinazolin-4-one] |
| 4.37 | O=c1[nH]c(CN2CCN(c3cc(C(F)(F)F)ccc3-c3nn[nH]n3)CC2)nc2ccccc12 [Compound A-29, 2-[[4-[2-(2H-tetrazol-5-yl)-5-(trifluoromethyl)-phenyl]piperazin-1-yl]methyl]-3H-quinazolin-4-one] |
| 4.37 | Cn1c(CN2CCN(c3ccccc3-c3nn[nH]n3)CC2)nc2ccccc21 [Compound A-15] |
| 4.44 | CCc1nc2ccccc2c(=O)n1CC1CCN(c2ccccc2-c2nn[nH]n2)CC1 [Compound A-240, 2-ethyl-3-[[1-[2-(2H-tetrazol-5-yl)-phenyl]-4-piperid-yl]methyl]quin-azolin-4-one] |
| 4.37 | CCc1nc2ccccc2c(=O)n1CC1CCN(c2ccccc2C(=O)NS(=O)(=O)CC)CC1 [Compound A-241, 2-[4-[(2-ethyl-4-oxo-quinazolin-3-yl)methyl]-1-piperidyl]-N-ethyl-sulfonyl-benzamide] |
| 4.54 | O=[N+]([O-])c1ccc2nc(N3CCN(Cc4ccccc4-c4nn[nH]n4)CC3)sc2c1 [Compound A-07, 6-nitro-2-[4-[[2-(2H-tetrazol-5-yl)-phenyl]methyl]-piperazin-1-yl]-1,3-benzothiazole] |
| 4.44 | Cc1ccc(-c2nn[nH]n2)c(N2CCN(Cc3nc4ccccc4c(=O)[nH]3)CC2)c1 [Compound A-27, 2-[[4-[5-methyl-2-(2H-tetrazol-5-yl)-phenyl]piperazin-1-yl]methyl]-3H-quinazolin-4-one] |
| 4.45 | CCc1nc2ccc(NC(=O)C3CC3)cc2c(=O)n1CC1CCN(c2ccccc2-c2nn[nH]n2)CC1 [Compound A-247, N-[2-ethyl-4-oxo-3-[[1-[2-(2H-tetrazol-5-yl)phenyl]-4-piperidyl]methyl]-quinazolin-6-yl]-cyclopropane-carboxamide] |
| 4.66 | Cc1ccc(-c2nn[nH]n2)c(N2CCN(Cc3nc4ccccc4n3C)CC2)c1 [Compound A-16, 1-methyl-2-[[4-[5-methyl-2-(2H-tetrazol-5-yl)phen-yl]piperazin-1-yl]-methyl]benzimid-azole] |

Molecular target: human AT1R (Homo sapiens (Human), UniProt P30556)
Test: Counterscreen radioligand binding assay, displacement of 125I-[Sar1, Ile8]-Angiotensin II, hAT1R WT
Conditions: 125I-[Sar1, Ile8]-Ang II, compound at 1 μM, semi-quantitative score, read-out: % Displaced radioligand at 1 μM
Experimental: as §1, §2

human AT1R, sequence (P30556 whole entry): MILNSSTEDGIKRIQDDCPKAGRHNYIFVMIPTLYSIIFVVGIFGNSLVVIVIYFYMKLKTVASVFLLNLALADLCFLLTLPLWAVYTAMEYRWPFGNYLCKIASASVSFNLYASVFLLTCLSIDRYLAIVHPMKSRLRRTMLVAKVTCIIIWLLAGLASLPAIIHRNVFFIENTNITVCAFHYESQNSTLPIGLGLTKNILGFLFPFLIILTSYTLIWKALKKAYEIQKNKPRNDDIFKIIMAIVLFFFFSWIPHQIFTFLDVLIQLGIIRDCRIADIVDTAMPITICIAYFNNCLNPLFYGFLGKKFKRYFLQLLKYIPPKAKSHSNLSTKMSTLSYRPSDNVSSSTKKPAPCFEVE

| inhibition at 1 µM [%] | SMILES |
| --- | --- |
| < 30 | c1ccc2sc(CN3CCN(c4cc(NCC5CC5)ccc4-c4nn[nH]n4)CC3)nc2c1 [Compound A-62, 3-[4-(1,3-benzothi-azol-2-ylmethyl)-piperazin-1-yl]-N-(cyclopropylmeth-yl)-4-(2H-tetrazol-5-yl)aniline] |

Same assay, conditions: 125I-[Sar1, Ile8]-Ang II, compound at 10 μM, semi-quantitative score, read-out: % Displaced radioligand at 10 μM

| inhibition at 10 µM [%] | SMILES |
| --- | --- |
| < 30 | c1ccc2sc(CN3CCN(c4cc(NCC5CC5)ccc4-c4nn[nH]n4)CC3)nc2c1 [Compound A-62, 3-[4-(1,3-benzothi-azol-2-ylmethyl)-piperazin-1-yl]-N-(cyclopropylmeth-yl)-4-(2H-tetrazol-5-yl)aniline] |
